Experiments:
Experiment in all cases: relative viability (nuclei count vs DMSO), 5 days (fraction); higher = more cells survive
[1] = compound: COc1cc2c(Oc3ccc4[nH]c(C)cc4c3F)ncnc2cc1OCCCN1CCCC1 [Cediranib] + CC1(C)CCC(c2ccc(Cl)cc2)=C(CN2CCN(c3ccc(C(=O)NS(=O)(=O)c4ccc(N[C@H](CCN5CCOCC5)CSc5ccccc5)c(S(=O)(=O)C(F)(F)F)c4)cc3)CC2)C1 [Navitoclax] (partner 0.5 µM)
In short: (§1)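 Cells from lung cancer lines were seeded into 1536-well plates and, one day later, dosed by pin tool. Treatments were either a single drug or a fixed dose of an anchor drug with five library-drug doses (not always all listed) in √10 steps. After 5 days, nuclei were stained in a one-step fixation (final 0.05% Triton X-100, 1% formaldehyde, 1 ug/ml Hoechst) and counted on 4× images, and relative viability is the treated-to-vehicle nuclei ratio, as the median of duplicate plates.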

[2] = compound: COc1cc2c(Oc3ccc4[nH]c(C)cc4c3F)ncnc2cc1OCCCN1CCCC1 [Cediranib] + Cc1cc(Nc2cc(N3CCN(C)CC3)nc(Sc3ccc(NC(=O)C4CC4)cc3)n2)n[nH]1 [Tozasertib] (partner 0.1 µM)
In short: as §1

[3] = compound: Nc1ncn([C@H]2C[C@H](O)[C@@H](CO)O2)c(=O)n1 [Decitabine] + COc1cccc2cc(-c3nc([C@H]4CC[C@H](C(=O)O)CC4)n4ncnc(N)c34)[nH]c12 [OSI-027] (partner 0.5 µM)
In short: as §1

[4] = compound: O=C(C[C@H]1NCCC[C@@H]1O)Cn1cnc2cc(Br)c(Cl)cc2c1=O (racemic) [Halofuginone] + NC(=O)Nc1cc(-c2cccc(F)c2)sc1C(=O)N[C@H]1CCCNC1 [AZD7762] (partner 0.2 µM)
In short: as §1

Row | Cell Line | relative viability ([1]; first compound 0.04 µM) | relative viability ([1]; first compound 0.1265 µM) | relative viability ([1]; first compound 0.4 µM) | relative viability ([1]; first compound 1.265 µM) | relative viability ([1]; first compound 4 µM) | relative viability ([2]; first compound 0.04 µM) | relative viability ([2]; first compound 0.1265 µM) | relative viability ([2]; first compound 0.4 µM) | relative viability ([2]; first compound 4 µM) | relative viability ([3]; first compound 0.04 µM) | relative viability ([3]; first compound 0.1265 µM) | relative viability ([3]; first compound 0.4 µM) | relative viability ([3]; first compound 1.265 µM) | relative viability ([3]; first compound 4 µM) | relative viability ([4]; first compound 0.003162 µM) | relative viability ([4]; first compound 0.01 µM) | relative viability ([4]; first compound 0.03162 µM) | relative viability ([4]; first compound 0.1 µM) | relative viability ([2]; first compound 1.265 µM) | relative viability ([4]; first compound 0.001 µM)
1 | A549 | 1.29 | 1.34 | 1.23 | 1.25 | 1.24 |  |  |  |  |  |  |  |  |  |  |  |  |  |  | 
2 | ABC-1 |  |  |  |  |  | 0.161 | 0.179 | 0.186 | 0.191 | 0.554 | 0.387 | 0.492 | 0.424 | 0.37 | 0.728 | 0.689 | 0.832 | 0.775 |  | 
3 | COR-L23 | 0.966 | 1.14 | 0.893 | 0.922 | 1.03 | 0.182 | 0.192 | 0.19 | 0.183 | 0.415 | 0.401 | 0.335 | 0.227 | 0.158 |  |  |  |  | 0.264 | 
4 | COR-L 105 |  | 0.842 | 0.733 | 0.756 | 0.693 | 0.392 | 0.364 | 0.343 | 0.388 | 0.425 | 0.581 | 0.65 | 0.526 | 0.585 |  |  |  |  | 0.329 | 
5 | Calu-6 | 0.876 | 0.86 | 0.898 | 0.788 | 0.819 |  |  |  |  |  |  |  |  |  |  |  |  |  |  | 
6 | EBC-1 | 0.388 | 0.441 | 0.37 | 0.52 | 0.455 |  |  |  |  |  |  |  |  |  |  |  |  |  |  | 
7 | IA-LM | 0.875 | 0.921 | 0.652 | 0.672 | 1.09 |  |  |  |  |  |  |  |  |  |  |  |  |  |  | 
8 | LCLC-103H |  |  |  |  |  | 0.501 | 0.505 | 0.467 | 0.5 | 0.406 | 0.472 | 0.462 | 0.376 | 0.376 | 0.851 | 0.784 | 0.793 | 0.695 | 0.469 | 0.808
9 | NCI-H358 |  |  |  |  |  | 0.123 | 0.0968 | 0.0956 | 0.101 | 0.372 | 0.254 | 0.2 | 0.113 | 0.12 | 0.492 | 0.447 | 0.246 | 0.149 | 0.105 | 0.496
10 | NCI-H520 | 1.15 |  | 0.926 | 1.09 | 1.2 | 0.57 | 0.35 | 0.543 | 0.426 | 0.309 | 0.242 | 0.234 | 0.215 | 0.21 |  |  |  |  |  | 
11 | NCI-H522 |  |  |  |  |  | 0.687 | 0.465 | 0.541 | 0.51 | 0.695 | 0.827 | 0.561 | 0.609 | 0.582 | 0.948 | 0.974 | 0.852 | 0.813 | 0.535 | 0.969
12 | NCI-H650 |  |  |  |  |  | 0.739 | 0.563 | 0.709 | 0.707 | 0.462 | 0.454 | 0.306 | 0.291 | 0.276 | 0.848 | 1.21 | 1 | 0.594 | 0.774 | 1.06
13 | NCI-H661 |  |  |  |  |  | 0.255 | 0.365 | 0.338 | 0.372 | 0.55 | 0.628 | 0.474 | 0.374 | 0.346 |  |  |  |  | 0.349 | 
14 | NCI-H1299 | 1.07 | 1.02 | 1.03 | 1.07 | 1.08 |  |  |  |  |  |  |  |  |  |  |  |  |  |  | 
15 | NCI-H1563 |  |  |  |  |  |  |  |  |  | 0.791 | 0.811 | 0.767 | 0.774 | 0.76 |  |  |  |  |  | 
16 | NCI-H1623 |  |  |  |  |  | 0.453 |  | 0.427 | 0.43 | 0.359 | 0.438 | 0.427 | 0.4 | 0.363 |  |  |  |  | 0.469 | 
17 | NCI-H1648 |  |  |  |  |  | 0.55 |  | 0.449 | 0.442 | 0.266 | 0.236 | 0.264 | 0.267 | 0.26 | 0.608 | 0.631 | 0.854 | 0.694 | 0.502 | 0.742
18 | NCI-H1650 | 1.19 | 1.29 | 1.08 | 1.12 | 0.751 | 0.585 | 0.374 | 0.36 | 0.329 | 0.422 | 0.495 | 0.321 | 0.285 | 0.341 |  |  |  |  | 0.476 | 
19 | NCI-H2009 | 1.2 | 1.14 | 1.16 | 1.14 | 1.11 | 0.775 | 0.763 | 0.703 | 0.795 | 0.518 | 0.437 | 0.336 | 0.296 | 0.25 |  |  |  |  | 0.732 | 
20 | NCI-H2023 | 0.997 | 1.02 | 1.01 | 0.997 | 0.988 | 0.389 | 0.353 | 0.267 | 0.303 | 0.275 | 0.29 | 0.26 | 0.159 | 0.15 |  |  |  |  | 0.433 | 
21 | NCI-H2228 | 0.791 | 0.968 | 0.883 | 1.22 | 1.1 | 0.26 | 0.351 | 0.237 | 0.203 | 0.418 | 0.431 | 0.205 | 0.103 | 0.207 |  |  |  |  | 0.207 | 
22 | SK-LU-1 | 1.1 | 0.999 | 0.859 | 0.654 | 1.04 | 0.316 | 0.412 | 0.305 | 0.335 | 0.296 | 0.29 | 0.216 | 0.253 | 0.227 |  |  |  |  | 0.365 | 
23 | SK-MES-1 | 1.23 | 1.36 | 1.13 | 1.21 | 1.2 | 0.903 | 0.917 | 0.908 | 0.898 | 0.508 | 0.529 | 0.384 | 0.188 | 0.203 |  |  |  |  | 0.924 | 
24 | SW 1573 | 0.925 | 1.06 | 0.872 | 1.01 | 1.05 | 0.193 | 0.179 | 0.136 | 0.18 | 0.469 | 0.558 | 0.572 | 0.273 | 0.21 |  |  |  |  | 0.153 | 
